# In PubChem BioAssay AID1000 (SRMLSC, 2008):
# Calls of active or inactive are those of the source.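 The calls were made as follows: active = over 20% inhibition at the single screening dose, then confirmed by dose response with half-maximal potency of 40 µM or better; inactive = the rest.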
# Target: mevalonate kinase (Streptococcus pneumoniae D39)
# Assay: S. pneumoniae MK inhibition retest, confirmation, biochemical, cuvette format, NADH absorbance 340 nm (AID 1000)
# Conditions: recombinant MK, PK/LDH coupled NADH absorbance 340 nm
row,Structure (SMILES),IC50 [µM]
1,O=C(c1cccc(-n2sc3ccccc3c2=O)c1)N1CCCC1,0.23
2,O=C(c1ccccc1-n1sc2ccccc2c1=O)N1CCOCC1,1.63
3,O=C(NCc1ccco1)c1ccc(-n2sc3ccccc3c2=O)cc1,0.157
4,CCCN(CCC)C(=O)c1cccc(-n2sc3ccccc3c2=O)c1,0.304
5,CCN(CC)C(=O)c1ccc(-n2sc3ccccc3c2=O)cc1,0.23
6,CCN(CC)C(=O)c1ccccc1-n1sc2ccccc2c1=O,1.01
7,O=C(c1ccc(-n2sc3ccccc3c2=O)cc1)N1CCOCC1,0.383
8,CCN(CC)C(=O)c1cccc(-n2sc3ccccc3c2=O)c1,0.214
9,O=C(NCC1CC1)c1ccc(-n2sc3ccccc3c2=O)cc1,0.176
10,CCCN(CCC)C(=O)c1ccc(-n2sc3ccccc3c2=O)cc1,0.168
11,O=C(NCc1ccco1)c1ccccc1-n1sc2ccccc2c1=O,0.579
12,O=C(c1ccccc1-n1sc2ccccc2c1=O)N1CCCCC1,0.531
13,CCCN(CCC)C(=O)c1ccccc1-n1sc2ccccc2c1=O,0.795
14,O=C(c1ccccc1-n1sc2ccccc2c1=O)N1CCCC1,0.514
15,Cc1ccc(-n2sc3ccccc3c2=O)cc1S(=O)(=O)N1CCCC1,0.083
16,CCCNC(=O)c1ccccc1-n1sc2ccccc2c1=O,0.381
17,CN1CCN(C(=O)c2ccc(-n3sc4ccccc4c3=O)cc2)CC1,0.459
18,O=C(NC1CC1)c1ccc(-n2sc3ccccc3c2=O)cc1,0.171
19,O=C(NC1CC1)c1cccc(-n2sc3ccccc3c2=O)c1,0.197
20,O=c1c2ccccc2nc2n1CCC2NC(c1ccccc1)c1ccccc1 (configuration not stated),17.3
21,O=C(NCCN1CCCC1)c1ccc(-n2sc3ccccc3c2=O)cc1,0.304
22,CN(C)C(=O)c1ccccc1-n1sc2ccccc2c1=O,0.754

# More lines, now with the values ahead:
row,IC50 [µM],Structure (SMILES)
1,0.369,CN(C)C(=O)c1cccc(-n2sc3ccccc3c2=O)c1
2,0.389,CN(C)C(=O)c1ccc(-n2sc3ccccc3c2=O)cc1
3,0.244,O=C(c1cccc(-n2sc3ccccc3c2=O)c1)N1CCCCC1
4,0.068,O=C(NCc1ccccc1)c1cccc(-n2sc3ccccc3c2=O)c1
5,0.242,O=C(NCc1ccccc1)c1ccccc1-n1sc2ccccc2c1=O
6,0.137,O=C(NCc1ccco1)c1cccc(-n2sc3ccccc3c2=O)c1
7,0.958,O=C(NC1CC1)c1ccccc1-n1sc2ccccc2c1=O
8,0.134,CCCNC(=O)c1ccc(-n2sc3ccccc3c2=O)cc1
9,0.198,O=C(c1ccc(-n2sc3ccccc3c2=O)cc1)N1CCCC1
10,0.432,O=C(c1cccc(-n2sc3ccccc3c2=O)c1)N1CCOCC1
11,0.094,O=C(NCc1ccccc1)c1ccc(-n2sc3ccccc3c2=O)cc1
12,0.306,Cc1ccc(-n2sc3ccccc3c2=O)cc1C(=O)N1CCCCC1
13,0.246,O=C(c1ccc(-n2sc3ccccc3c2=O)cc1)N1CCCCC1
14,0.277,CCCNC(=O)c1cccc(-n2sc3ccccc3c2=O)c1

# Same assay, conditions: recombinant MK, PK/LDH coupled NADH absorbance 340 nm; at 100 µM; active compounds read high
row,Structure (SMILES),inhibition
1,O=c1c2ccccc2nc2n1CCC2NC1CC1 (configuration not stated),inactive
2,O=c1c2ccccc2nc2n1CCC2SCc1ccccc1 (configuration not stated),inactive
3,COc1cc2nc3n(c(=O)c2cc1OC)CCC3,inactive
4,COc1cccc2c(=O)n3c(nc12)/C(=C/c1ccc2c(c1)OCO2)CC3,inactive
5,Cc1ccc2nc3n(c(=O)c2c1)CCC3,inactive
6,O=c1c2c(F)cccc2nc2n1CCC2,inactive
7,O=c1c2cc(Br)ccc2nc2n1CCC2,inactive
8,O=c1c2ccccc2nc2n1CCC2N1CCC(Cc2ccccc2)CC1 (configuration not stated),inactive
9,O=c1c2ccccc2nc2n1CCC2(Br)Br,inactive
10,O=c1c2cccc(Cl)c2nc2n1CCC2,inactive
11,O=c1c2ccccc2nc2n1CCC2SCCc1ccccc1 (configuration not stated),inactive
12,COc1cccc(CCNC2CCn3c2nc2ccccc2c3=O)c1 (configuration not stated),inactive
13,O=c1c2cc(Cl)ccc2nc2n1CCC2,inactive
14,O=c1c2ccccc2nc2n1CCC2N1CCOCC1 (configuration not stated),inactive

# Next, values leading:
row,inhibition,Structure (SMILES)
1,inactive,COc1ccc(CSC2CCn3c2nc2ccccc2c3=O)cc1 (configuration not stated)
2,inactive,COc1cccc2c(=O)n3c(nc12)CCC3
3,inactive,Cc1cccc2c(=O)n3c(nc12)CCC3
4,inactive,O=c1c2c(Cl)cccc2nc2n1CCC2
5,inactive,O=c1c2cc(F)ccc2nc2n1CCC2
6,inactive,O=c1c2ccc(Cl)cc2nc2n1CCC2
7,inactive,O=c1c2ccc(F)cc2nc2n1CCC2
